Laboratory results reported in the supplement of paper PMC10307832.

What was measured:
Bortezomib = compound: CC(C)C[C@H](NC(=O)[C@H](Cc1ccccc1)NC(=O)c1cnccn1)B(O)O [Bortezomib]; test: relative viability (nuclei count vs DMSO), 5 days (fraction); higher = more cells survive
Summary of the method: (§1)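 Hoechst staining, done together with fixation and permeabilisation, marked nuclei for 4× imaging and MetaXpress counting. This followed 5 days without medium change after lung cancer cell lines, kept overnight at 37 °C in 1536-well plates, were pinned with five library-drug doses (not always all listed) spaced by √10 on vehicle-anchored plates. Viability is the ratio of treated-well to vehicle-well nuclei, expressed as a median across plates. Plates passed only at control CV below 25% with at least one doubling.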

Obatoclax = compound: COC1=CC(c2cc3ccccc3[nH]2)=N/C1=C\c1[nH]c(C)cc1C [Obatoclax]; test: as above
Summary of the method: as §1

Cell Line | relative viability (Bortezomib; 0.0002 µM) | relative viability (Bortezomib; 0.000632 µM) | relative viability (Bortezomib; 0.002 µM) | relative viability (Bortezomib; 0.002 µM, anchor plate) | relative viability (Bortezomib; 0.006325 µM) | relative viability (Bortezomib; 0.02 µM) | relative viability (Obatoclax; 0.01 µM) | relative viability (Obatoclax; 0.03162 µM) | relative viability (Obatoclax; 0.1 µM) | relative viability (Obatoclax; 0.3162 µM) | relative viability (Obatoclax; 1 µM)
201T | 0.98 | 0.953 | 0.959 | 1.09 | 0.854 | 0.351 | 0.965 | 0.909 | 0.95 | 1.02 | 1.05
A549 | 0.914 | 0.981 | 0.939 | – | 0.0802 | 0.0522 | 0.987 | 0.942 | 0.92 | 0.922 | 0.575
A-427 | 0.841 | 0.905 | 1.05 | 0.998 | 0.233 | 0.169 | 0.968 | 0.972 | 0.86 | 0.954 | 0.719
ABC-1 | 0.779 | 0.566 | 0.271 | 0.321 | 0.216 | 0.242 | 1.05 | 0.971 | 0.753 | 0.828 | 0.448
BEN | 0.91 | 0.991 | 0.954 | 0.843 | 0.704 | 0.274 | 1.02 | 0.821 | 0.727 | 0.922 | 0.953
CAL-12T | 0.93 | 0.971 | 0.957 | 1.03 | 0.49 | 0.155 | 0.995 | 0.955 | 1 | 0.483 | 0.328
COR-L23 | 0.97 | 0.948 | 0.964 | 0.971 | 0.0694 | 0.071 | 1.01 | 1.07 | 0.945 | 0.375 | 0.27
COR-L 105 | 0.855 | 0.936 | 0.797 | 0.931 | 0.292 | 0.314 | 0.884 | 1.08 | 0.992 | 0.69 | 0.436
Calu-6 | 0.998 | 0.965 | 0.974 | 0.961 | 0.118 | 0.0868 | 1 | 0.994 | 0.963 | 0.943 | 0.488
ChaGo-K-1 | 0.993 | 0.814 | 1.01 | 1.08 | 0.594 | 0.213 | 0.997 | 0.829 | 1.01 | 0.931 | 1.06
EBC-1 | 0.993 | 1 | 0.417 | 0.576 | 0.0892 | 0.0983 | 0.923 | 0.958 | 0.924 | 0.87 | 0.338
EKVX | 0.934 | 0.96 | 0.987 | 1.04 | 0.669 | 0.124 | 1.07 | 0.891 | 0.905 | 0.982 | 0.918
EMC-BAC-2 | 0.938 | 0.961 | 0.999 | 1.11 | 0.543 | 0.2 | 0.973 | 0.957 | 0.74 | 0.96 | 0.819
EPLC-272H | 0.8 | 0.652 | 0.871 | 0.902 | 0.66 | 0.105 | 0.99 | 0.924 | 0.96 | 0.675 | 0.339
H3255 | 0.928 | 1.06 | 0.951 | 0.816 | 0.274 | 0.291 | 0.931 | 0.926 | 0.896 | 1 | 0.959
